Experimental data reported in ChEMBL document CHEMBL1121951, “Synthesis and evaluation of N-(phenylalkyl)acetohydroxamic acids as potential substrates for N-arylhydroxamic acid N,O-acyltransferase” (1982).
Calls of active or inactive are those of the source. The rule behind the calls is not given here.

How the values were obtained:
Cricetulus griseus [1] = organism: Cricetulus griseus; experiment: Effect of the compound on hamster hepatic N-arylhydroxamic acid N,O-acyltransferase activity
[2] = Effect for methylthio adduct formation at 2 mM concentration; assay type: functional
[3] = Effect for methylthio adduct formation at 1 mM concentration; assay type: functional
Cricetulus griseus [4] = organism: Cricetulus griseus; experiment: Effect of the compound on hamster hepatic N,O-acyltransferase (AHAT) activity; assay type: functional
Rattus norvegicus = organism: Rattus norvegicus; experiment: Transacetylation rate in rat hepatic AHAT preparation; assay type: functional
[5] = Compound inhibit the AHAT-catalyzed transacetylation activity; Active; assay type: functional
Cricetinae gen. sp. [6] = experiment: Transacetylation rate in hamster hepatic AHAT preparation; assay type: functional, Cricetulus griseus
[7] = AHAT-catalyzed transacetylation rate at 0.5-1.0 concentration; assay type: functional
Cricetinae gen. sp. [8] = experiment: Effect for methylthio adduct formation in presence of 0.1 mM N-hydroxy-4-aminobiphenyl and 10 mM N-acetylmethioninein hamster hepatic AHAT preparation at 30 min; assay type: functional, Cricetulus griseus
[9] = AHAT-catalyzed transacetylation rate at 0.5-1.0 concentration; No effect; assay type: functional

| Activity (Cricetulus griseus [1]) [%] | SMILES | Reduction [2] [%] | Reduction [3] [%] | Activity (Rattus norvegicus) | also measured |
| --- | --- | --- | --- | --- | --- |
| < 1 | CC(=O)N(O)CCCc1ccccc1 |  |  |  |  |
|  | CC(=O)N(O)CCc1ccccc1 | 17 | 8 |  | Activity (Cricetulus griseus [4]): < 1% |
| < 1 | CC(=O)N(O)Cc1ccccc1 |  |  |  |  |
| < 1 | CC(=O)N(O)CCCCc1ccccc1 |  |  | 0.73 nmol/mg/min |  |
|  | CC(=O)N(O)c1ccc(-c2ccccc2)cc1 |  |  | 4.99 nM/min | Activity [5]: Active; Activity (Cricetinae gen. sp. [6]): 9.14 nM/min; Activity [7]: 10%; Activity (Cricetinae gen. sp. [8]): 120 nM |
| < 1 | CC(=O)N(O)C1CCC(c2ccccc2)CC1 (stereo unspecified) | 23 | 13 |  | Activity [9]: inactive |
